Where two headings read alike, the source gives them in different places.
Biological target: T1, F508delCFTR (Homo sapiens, UniProt P13569, DEL508-508)
T1 construct: expressed in transfected cells; host or cells: CFBE41o- human lung-derived epithelial cells (CFBE4lo-F508delCFTR-HRP), doxycycline-inducible
Assay: Cell Surface Expression-Horse Radish Peroxidase (CSE-HRP) Assay;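 for Maximum % activity (with co-corrector): co-corrector and positive control are both the same reference corrector at 2 µM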;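 for Maximum % activity (without co-corrector): percent of the 2 µM on-plate positive control corrector response above DMSO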
Assay type: cell-based
Conditions: CSE-HRP; for Maximum % activity (with co-corrector): with co-corrector (2 μM); for Maximum % activity (with co-corrector) / Emax: maximum at any tested concentration, normalized to on-plate positive control; for Emax: without co-corrector, read-out: Maximum % activity (without co-corrector)

[1] = test compound without co-corrector, read-out: EC50 (without co-corrector)
[2] = with co-corrector (2 μM of 3-[(2R,4R)-4-({[1-(2,2-difluoro-1,3-benzodioxol-5-yl)cyclopropyl]carbonyl}amino)-7-methoxy-3,4-dihydro-2H-chromen-2-yl]benzoic acid), read-out: EC50 (with co-corrector)

T1 sequence (P13569 with tags, fused parts or gaps DEL508-508): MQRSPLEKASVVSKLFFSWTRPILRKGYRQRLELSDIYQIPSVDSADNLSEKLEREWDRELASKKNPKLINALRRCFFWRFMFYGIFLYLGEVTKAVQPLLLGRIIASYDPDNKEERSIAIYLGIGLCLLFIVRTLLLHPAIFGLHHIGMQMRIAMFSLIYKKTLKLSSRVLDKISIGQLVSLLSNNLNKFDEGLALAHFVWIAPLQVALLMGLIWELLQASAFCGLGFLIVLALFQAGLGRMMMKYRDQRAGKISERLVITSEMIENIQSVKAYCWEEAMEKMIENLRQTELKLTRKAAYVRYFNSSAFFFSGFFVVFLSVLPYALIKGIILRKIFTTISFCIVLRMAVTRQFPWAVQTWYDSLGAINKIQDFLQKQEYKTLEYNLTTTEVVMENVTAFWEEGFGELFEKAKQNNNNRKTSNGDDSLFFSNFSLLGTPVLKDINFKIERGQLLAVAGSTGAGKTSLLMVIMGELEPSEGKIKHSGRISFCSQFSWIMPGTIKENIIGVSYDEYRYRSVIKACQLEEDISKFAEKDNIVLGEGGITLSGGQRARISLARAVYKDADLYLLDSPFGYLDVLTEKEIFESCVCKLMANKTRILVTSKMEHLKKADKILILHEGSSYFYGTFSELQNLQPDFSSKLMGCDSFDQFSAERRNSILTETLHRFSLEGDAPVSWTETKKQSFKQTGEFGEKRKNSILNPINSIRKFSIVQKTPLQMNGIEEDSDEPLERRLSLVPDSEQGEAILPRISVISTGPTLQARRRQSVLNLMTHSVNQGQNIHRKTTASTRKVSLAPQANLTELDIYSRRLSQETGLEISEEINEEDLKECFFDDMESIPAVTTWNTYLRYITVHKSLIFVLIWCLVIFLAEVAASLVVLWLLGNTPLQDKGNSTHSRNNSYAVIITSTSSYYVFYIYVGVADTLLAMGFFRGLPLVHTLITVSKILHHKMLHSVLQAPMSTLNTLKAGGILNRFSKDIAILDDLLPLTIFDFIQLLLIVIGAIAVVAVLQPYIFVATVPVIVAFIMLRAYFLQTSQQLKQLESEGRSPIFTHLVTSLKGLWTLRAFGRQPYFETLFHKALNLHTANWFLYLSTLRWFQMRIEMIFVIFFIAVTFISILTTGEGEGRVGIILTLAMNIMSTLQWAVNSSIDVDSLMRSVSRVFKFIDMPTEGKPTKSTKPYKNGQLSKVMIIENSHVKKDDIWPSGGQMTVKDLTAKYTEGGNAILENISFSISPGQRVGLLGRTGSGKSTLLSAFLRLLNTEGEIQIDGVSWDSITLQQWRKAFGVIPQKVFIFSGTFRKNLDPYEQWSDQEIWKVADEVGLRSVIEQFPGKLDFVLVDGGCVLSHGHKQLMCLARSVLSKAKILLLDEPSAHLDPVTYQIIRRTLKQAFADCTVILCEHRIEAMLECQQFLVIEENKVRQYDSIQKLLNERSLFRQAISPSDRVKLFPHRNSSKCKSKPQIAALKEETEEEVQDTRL

SMILES | EC50 [1] | EC50 [2] | Maximum % activity (with co-corrector) | Emax
COc1cc(C(F)(F)F)ccc1CN[C@H]1[C@H](C(C)(C)C)[C@@H](C(=O)O)N(C(=O)C2CCCCC2)[C@H]1c1ccccc1F [II-261] | 1000 to 10000 nM | 1000 to 10000 nM | +++ (≥350) | < 100%
COc1ccc(Br)cc1CN[C@H]1[C@H](C(C)(C)C)[C@@H](C(=O)O)N(C(=O)C2CCCCC2)[C@H]1c1ccccc1F [II-262] | 1000 to 10000 nM | 1000 to 10000 nM | +++ (≥350) | 100 to 200%
COc1ncc(Br)cc1CN[C@H]1[C@H](C(C)(C)C)[C@@H](C(=O)O)N(C(=O)C2CCCCC2)[C@H]1c1ccccc1F [II-263] | 1000 to 10000 nM | 1000 to 10000 nM | +++ (≥350) | < 100%
COc1ccc(C(C)(C)C)cc1CN[C@H]1[C@H](C(C)(C)C)[C@@H](C(=O)O)N(C(=O)OCC(C)C)[C@H]1c1ccccc1 [II-264] | 1000 to 10000 nM | 1000 to 10000 nM | +++ (≥350) | > 200%
COc1ccc(C(C)(C)C)cc1CN[C@H]1[C@H](C(C)(C)C)[C@@H](C(=O)O)N(C(=O)C(OC)C(C)C)[C@H]1c1ccccc1 (stereo partly drawn) [II-267] | 1000 to 10000 nM | 1000 to 10000 nM | +++ (≥350) | > 200%
COc1ccc(C(F)(F)F)cc1CN[C@H]1[C@H](C(C)(C)C)[C@@H](C(=O)O)N(C(=O)C(OC)C(C)C)[C@H]1c1ccccc1 (stereo partly drawn) [II-273] | 1000 to 10000 nM | 1000 to 10000 nM | +++ (≥350) | > 200%
COc1ccc(-c2cccs2)cc1CN[C@H]1[C@H](C(C)(C)C)[C@@H](C(=O)O)N(C(=O)C2CCCCC2)[C@H]1c1ccccc1 [II-275] | < 1000 nM | < 1000 nM | +++ (≥350) | > 200%
COc1ccc(-c2ccoc2)cc1CN[C@H]1[C@H](C(C)(C)C)[C@@H](C(=O)O)N(C(=O)C2CCCCC2)[C@H]1c1ccccc1 [II-276] | 1000 to 10000 nM | < 1000 nM | +++ (≥350) | > 200%
COc1cccc(-c2ccc(OC)c(CN[C@H]3[C@H](C(C)(C)C)[C@@H](C(=O)O)N(C(=O)C4CCCCC4)[C@H]3c3ccccc3)c2)c1 [II-277] | 1000 to 10000 nM | < 1000 nM | +++ (≥350) | > 200%
COc1ccc(-c2ccc(C)nc2)cc1CN[C@H]1[C@H](C(C)(C)C)[C@@H](C(=O)O)N(C(=O)C2CCCCC2)[C@H]1c1ccccc1 [II-278] | 1000 to 10000 nM | 1000 to 10000 nM | +++ (≥350) | 100 to 200%
COc1ccc(-c2ccccc2C)cc1CN[C@H]1[C@H](C(C)(C)C)[C@@H](C(=O)O)N(C(=O)C2CCCCC2)[C@H]1c1ccccc1 [II-279] | < 1000 nM | < 1000 nM | +++ (≥350) | > 200%
COc1ccc(-c2cnccc2C)cc1CN[C@H]1[C@H](C(C)(C)C)[C@@H](C(=O)O)N(C(=O)C2CCCCC2)[C@H]1c1ccccc1 [II-280] | 1000 to 10000 nM | 1000 to 10000 nM | +++ (≥350) | < 100%
COc1ccc(-c2cccc(C#N)c2)cc1CN[C@H]1[C@H](C(C)(C)C)[C@@H](C(=O)O)N(C(=O)C2CCCCC2)[C@H]1c1ccccc1 [II-281] | 1000 to 10000 nM | 1000 to 10000 nM | +++ (≥350) | 100 to 200%
COc1ccc(-c2ccc(F)cc2C)cc1CN[C@H]1[C@H](C(C)(C)C)[C@@H](C(=O)O)N(C(=O)C2CCCCC2)[C@H]1c1ccccc1 [II-282] | < 1000 nM | < 1000 nM | +++ (≥350) | > 200%
COc1ccc(-c2ccc(F)cc2F)cc1CN[C@H]1[C@H](C(C)(C)C)[C@@H](C(=O)O)N(C(=O)C2CCCCC2)[C@H]1c1ccccc1 [II-283] | < 1000 nM | < 1000 nM | +++ (≥350) | > 200%
COc1ccc(-c2cccnc2)cc1CN[C@H]1[C@H](C(C)(C)C)[C@@H](C(=O)O)N(C(=O)C2CCCCC2)[C@H]1c1ccccc1 [II-284] | 1000 to 10000 nM | 1000 to 10000 nM | +++ (≥350) | < 100%
COc1ccc(-c2c(C)noc2C)cc1CN[C@H]1[C@H](C(C)(C)C)[C@@H](C(=O)O)N(C(=O)C2CCCCC2)[C@H]1c1ccccc1 [II-285] | 1000 to 10000 nM | 1000 to 10000 nM | +++ (≥350) | 100 to 200%
COc1ccc(-c2cccc(F)c2F)cc1CN[C@H]1[C@H](C(C)(C)C)[C@@H](C(=O)O)N(C(=O)C2CCCCC2)[C@H]1c1ccccc1 [II-286] | < 1000 nM | < 1000 nM | +++ (≥350) | > 200%

SMILES | EC50 [1] | EC50 [2] | Maximum % activity (with co-corrector) | Emax
COc1ccc(-c2cncc(F)c2)cc1CN[C@H]1[C@H](C(C)(C)C)[C@@H](C(=O)O)N(C(=O)C2CCCCC2)[C@H]1c1ccccc1 [II-287] | 1000 to 10000 nM | 1000 to 10000 nM | +++ (≥350) | 100 to 200%
COc1ccc(-c2cccnc2C)cc1CN[C@H]1[C@H](C(C)(C)C)[C@@H](C(=O)O)N(C(=O)C2CCCCC2)[C@H]1c1ccccc1 [II-288] | 1000 to 10000 nM | 1000 to 10000 nM | +++ (≥350) | < 100%
COc1ccc(-c2ccc(C#N)cc2)cc1CN[C@H]1[C@H](C(C)(C)C)[C@@H](C(=O)O)N(C(=O)C2CCCCC2)[C@H]1c1ccccc1 [II-289] | < 1000 nM | 1000 to 10000 nM | +++ (≥350) | < 100%
COc1ccc(-c2cnn(C3CCC3)c2)cc1CN[C@H]1[C@H](C(C)(C)C)[C@@H](C(=O)O)N(C(=O)C2CCCCC2)[C@H]1c1ccccc1 [II-290] | 1000 to 10000 nM | 1000 to 10000 nM | ++ (≥150 and <350) | < 100%
COc1ccc(-c2ccco2)cc1CN[C@H]1[C@H](C(C)(C)C)[C@@H](C(=O)O)N(C(=O)C2CCCCC2)[C@H]1c1ccccc1 [II-291] | 1000 to 10000 nM | 1000 to 10000 nM | +++ (≥350) | > 200%
COc1ccc(OC(F)F)cc1CN[C@H]1[C@H](C(C)(C)C)[C@@H](C(=O)O)N(C(=O)C2CCCCC2)[C@H]1c1ccccc1 [II-292] | 1000 to 10000 nM | 1000 to 10000 nM | +++ (≥350) | 100 to 200%
COc1ccc(C2=CCOC2)cc1CN[C@H]1[C@H](C(C)(C)C)[C@@H](C(=O)O)N(C(=O)C2CCCCC2)[C@H]1c1ccccc1 [II-293] | 1000 to 10000 nM | 1000 to 10000 nM | +++ (≥350) | 100 to 200%
COc1ccc(C(C)(C)C)cc1CN[C@H]1[C@H](C(C)(C)OC)[C@@H](C(=O)O)N(C(=O)C2CCCCC2)[C@H]1c1ccccc1OC [II-294] | 1000 to 10000 nM | 1000 to 10000 nM | +++ (≥350) | > 200%
COc1ccc(C(F)(F)F)cc1CN[C@H]1[C@H](C(C)(C)OC)[C@@H](C(=O)O)N(C(=O)C2CCCCC2)[C@H]1c1ccccc1OC [II-295] | 1000 to 10000 nM | 1000 to 10000 nM | +++ (≥350) | 100 to 200%
COc1ccc(-c2ccccc2)nc1CN[C@H]1[C@H](C(C)(C)C)[C@@H](C(=O)O)N(C(=O)C2CCCCC2)[C@H]1c1ccccc1 [II-296] | 1000 to 10000 nM | 1000 to 10000 nM | +++ (≥350) | 100 to 200%
COc1ccc(C(C)(C)C)cc1CN[C@H]1[C@H](C(C)(C)C)[C@@H](C(=O)O)N(C(=O)C(OC)C(C)(C)C)[C@H]1c1ccccc1 (stereo partly drawn) [II-298] | 1000 to 10000 nM | 1000 to 10000 nM | +++ (≥350) | 100 to 200%
COc1ccc(C(F)(F)F)cc1CN[C@H]1[C@H](C(C)(C)C)[C@@H](C(=O)O)N(C(=O)C2Cc3ccccc3CO2)[C@H]1c1ccccc1 (stereo partly drawn) [II-299] | 1000 to 10000 nM | 1000 to 10000 nM | +++ (≥350) | 100 to 200%
COc1ccc(C(C)(C)C)cc1CN[C@H]1[C@H](C(C)(C)C)[C@@H](C(=O)O)N(C(=O)C2Cc3ccccc3CO2)[C@H]1c1ccccc1 (stereo partly drawn) [II-300] | < 1000 nM | < 1000 nM | +++ (≥350) | > 200%
COc1ncc(C(C)(C)C)cc1CN[C@H]1[C@H](C(C)(C)C)[C@@H](C(=O)O)N(C(=O)Cc2c(F)cccc2F)[C@H]1c1ccccc1 [II-301] | 1000 to 10000 nM | < 1000 nM | +++ (≥350) | > 200%
COc1ccc(C(C)(C)C)cc1CN[C@H]1[C@H](C2(C)CC2)[C@@H](C(=O)O)N(C(=O)C2CCCCC2)[C@H]1c1ccccc1 [II-302] | 1000 to 10000 nM | < 1000 nM | +++ (≥350) | > 200%
COc1cc(C(F)(F)F)ccc1CN[C@H]1[C@H](C2(C)CC2)[C@@H](C(=O)O)N(C(=O)C2CCCCC2)[C@H]1c1ccccc1 [II-303] | 1000 to 10000 nM | 1000 to 10000 nM | +++ (≥350) | < 100%
COc1ccc(C(C)(C)C)cc1CN[C@H]1[C@H](C(C)(C)C)[C@@H](C(=O)O)N(C(=O)C(C)CC(F)(F)F)[C@H]1c1ccccc1 (stereo partly drawn) [II-304] | 1000 to 10000 nM | 1000 to 10000 nM | +++ (≥350) | > 200%
COc1ccc(C(C)(C)C)cc1CN[C@H]1[C@H](C(C)(C)C)[C@@H](C(=O)O)N(C(=O)C(C)Oc2cccc(F)c2)[C@H]1c1ccccc1 (stereo partly drawn) [II-305] | < 1000 nM | < 1000 nM | +++ (≥350) | 100 to 200%

Source: US20180099931A1 (AbbVie S.à.r.l., priority 2016, published 2018)
